Where “and” joins values, the source holds several entries; their conditions need not be identical. Equal values may be shown once. Read-outs that look alike come from different tables or passages of the source.
Legend:
rat GLP-1 receptor = molecular target: T1, rat GLP-1 receptor (Rattus norvegicus, UniProt P32301); assay: cAMP potency assay in CHO cells transfected with the rat GLP-1 receptor (CHO-GLP-1R); format: cell-based
T1 construct: expressed in transfected cells; host or cells: CHO (CHO-GLP-1R)
T1 sequence (P32301 22-463): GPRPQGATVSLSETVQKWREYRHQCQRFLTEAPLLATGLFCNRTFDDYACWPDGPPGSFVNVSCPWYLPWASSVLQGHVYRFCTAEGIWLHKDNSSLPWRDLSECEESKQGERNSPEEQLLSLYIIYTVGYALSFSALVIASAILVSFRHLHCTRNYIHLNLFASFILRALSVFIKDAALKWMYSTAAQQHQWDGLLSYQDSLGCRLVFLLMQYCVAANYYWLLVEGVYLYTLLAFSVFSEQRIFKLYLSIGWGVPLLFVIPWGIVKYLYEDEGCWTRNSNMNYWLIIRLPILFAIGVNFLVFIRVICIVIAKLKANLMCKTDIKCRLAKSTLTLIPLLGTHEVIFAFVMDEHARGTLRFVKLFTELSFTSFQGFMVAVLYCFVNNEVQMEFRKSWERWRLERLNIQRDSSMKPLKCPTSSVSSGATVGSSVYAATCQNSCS
Description: 96-well tissue culture plates were seeded with CHO-GLP-1R cells and cultured overnight. The following day, the cells were rinsed with Krebs-Ringer buffer (KRB) and incubated in KRB containing the phosphodiesterase inhibitor 3-isobutyl-1-methylxanthine (IBMX, 2 mM) to inhibit intracellular enzymes that process cAMP. Serial dilutions of test compounds and controls were prepared in KRB/IBMX and triplicate wells of cells were inoculated with samples and controls. After incubation, individual sample lysates were then assayed to measure the increase in intracellular cAMP levels using a competition-based fluorescent immunoassay (CatchPoint® cAMP Fluorescent Assay Kit, Molecular Devices Corp., Sunnyvale, Calif.).

human GLP-1 receptor = molecular target: T2, human GLP-1 receptor (Homo sapiens, UniProt P43220); assay: cell-based cAMP assay in CHO cells expressing the human GLP-1 receptor (FIG. 4)
T2 construct: expressed in transfected cells; host or cells: CHO

[1] = molecular target: T3, matrix metalloprotease I (MMP-1, collagenase) (Homo sapiens, UniProt P03956); format: in vitro ADME
T3 sequence (P03956 100-469): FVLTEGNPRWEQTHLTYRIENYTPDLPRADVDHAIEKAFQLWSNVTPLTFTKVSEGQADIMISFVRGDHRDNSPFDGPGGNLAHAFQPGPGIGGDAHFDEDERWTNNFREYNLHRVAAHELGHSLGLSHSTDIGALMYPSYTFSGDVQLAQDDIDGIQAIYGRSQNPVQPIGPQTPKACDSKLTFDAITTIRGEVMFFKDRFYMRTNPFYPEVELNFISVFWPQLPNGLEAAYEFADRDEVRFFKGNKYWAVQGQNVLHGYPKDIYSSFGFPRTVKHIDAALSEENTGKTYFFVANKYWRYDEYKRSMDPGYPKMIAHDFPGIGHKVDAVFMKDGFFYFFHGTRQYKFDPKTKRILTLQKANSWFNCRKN
Source text: This difference in degradation occurs despite the close similarity in amino acid sequence in the active portion of the molecules.

Diabetic (db/db) mice = assay: blood glucose in diabetic (db/db) mice after subcutaneous injection; format: in vivo
Sprague Dawley rats = assay: rat body weight, daily subcutaneous injections; format: in vivo
Source text: The rats were weighed everyday (prior to dosing on dosing days). Animals had full access to food and water at all times.
By day five, the animals treated with 100 nmole/kg doses lost an average of 75 grams (17%) body weight compared to controls, and the weight loss is related to a drop in food and water intake. Because of the dramatic and acute weight loss observed, daily administration of the drug was stopped at day five. After the 5 day administration period, all animals gained weight at a similar rate.

mice = assay: body weight in mice after a single dose; format: in vivo; settings: for average drop in body weight: twenty-four hours after administration
Source text: Such a dose can also be administered once per two weeks or once per month.

[2] = cynomolgus monkey, in vivo, 1 mg/kg
[3] = effect of aerosolization on integrity and activity of the fusion protein; format: physicochemical
Source text: (§1) Aerosols were generated with an Aerotech II compressed air jet nebulizer (CIS-US Inc., Bedford, Mass.) and directed through a 1.58 cm diameter stainless steel aerosol delivery line into a 24-port flow past rodent exposure system (IN-TOX, ABQ, NM). The exhaust flow rate out of the chamber was ˜11.5 L/min. The nebulizer pressure was maintained at ˜30 psi.

diabetic mice (db/db) = assay: blood glucose in db/db mice after inhalation of aerosolized fusion protein; format: in vivo; settings: inhalation exposure equivalent to 0.3, 1 and 3 mg/kg
Source text: as §1

[4] = mouse, in vivo, inhaled or intranasal
Description: The inhalation time in the chamber was chosen so that the animals would receive an exposure equivalent to the 0.3, 1 and 3 mg/kg dose administered subcutaneously. As a control, these doses were administered subcutaneously (SC) to compare in vivo activity to the inhaled route of administration.

T2 sequence (P43220 24-463): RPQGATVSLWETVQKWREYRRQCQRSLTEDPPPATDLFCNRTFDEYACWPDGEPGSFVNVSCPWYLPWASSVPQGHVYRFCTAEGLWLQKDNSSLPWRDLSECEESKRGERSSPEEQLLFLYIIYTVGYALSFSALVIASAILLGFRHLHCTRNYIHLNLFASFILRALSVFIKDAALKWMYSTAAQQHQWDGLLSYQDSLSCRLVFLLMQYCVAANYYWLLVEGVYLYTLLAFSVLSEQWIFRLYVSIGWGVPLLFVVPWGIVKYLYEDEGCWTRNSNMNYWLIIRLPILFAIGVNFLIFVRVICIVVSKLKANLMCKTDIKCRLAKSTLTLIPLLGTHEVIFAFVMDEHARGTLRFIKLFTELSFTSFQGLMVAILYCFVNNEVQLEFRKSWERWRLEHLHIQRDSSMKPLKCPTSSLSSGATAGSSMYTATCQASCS

Substance: exendin-4(1-39) (PEAPTD)2 (SEQ ID NO: 5) mTf fusion protein: exendin-4(1-39) (SEQ ID NO: 4) linked via linker (PEAPTD)2 to modified transferrin mTf (SEQ ID NO: 17); sequence SEQ ID NO: 23
- EC50 (rat GLP-1 receptor; cAMP accumulation in CHO-GLP-1R cells): 0.16 nM
- potency relative to the GLP-1(7-37,A8G,K34A) (PEAPTD)2 mTf fusion protein (rat GLP-1 receptor; in vitro activation of the GLP-1 receptor): four-eight fold more potent
- EC50 (human GLP-1 receptor; cell-based cAMP assay, FIG. 4): 0.0313 nM
- potency relative to exendin-4 (fold less potent) (human GLP-1 receptor; in vitro, CHO cells expressing the human GLP-1 receptor): approximately 5 fold
- resistance to inactivation by MMP-1 [1]: resistant to inactivation by MMP-1
- time the almost normalized glucose level persisted (Diabetic (db/db) mice; all treatment groups): 24 h
- dose that significantly reduced blood glucose (Diabetic (db/db) mice; by 3 hours after subcutaneous injection): ≤ 1.3 nmol/kg
- effect on blood glucose compared with equivalent doses of the GLP-1(7-37,A8G,K34A) (PEAPTD)2 mTf fusion protein (Diabetic (db/db) mice; equivalent doses): significantly greater and of a longer duration
- time at which glucose concentrations returned to pretreatment levels (Diabetic (db/db) mice; post-treatment, depending on the dose): 48 to 72 h
- reduction in blood glucose (Diabetic (db/db) mice; reduction seen in db/db mice): approximately 70%
- body weight loss (Sprague Dawley rats; 100 nmole/kg daily administration, rats): 17% and 16%
- average body weight loss compared to controls (Sprague Dawley rats; 100 nmole/kg daily, by day five): 75 grams
- body weight change (Sprague Dawley rats; 10 and 100 nmole/kg doses): lost weight after the first injection
- body weight versus control animals after end of dosing (Sprague Dawley rats; 20 days following the last administration): still weighed less than the control animals
- dose correlated with a reduction in animal body weight (mice; mice and rats): ≥ 10 nmol/kg
- average drop in body weight (mice; single dose 10 nmole/kg): 6%
- average drop in body weight (mice; single dose 100 nmole/kg): 14%
- Vz ([2]; iv): 0.0659 ± 0.031 L/kg
- λ z ([2]; iv): 0.0313 ± 0.0137 h − 1
- F ([2]; sc): 49.0%
- λ z ([2]; sc): 0.0252 ± 0.0084 h − 1
- effect of aerosolization on structure ([3]; 10 mg/mL in 10 mM histidine pH 7.4, 100 mM NaCl, nebulized, SDS-PAGE and SEC-HPLC): no detectable adverse effect on the structure
- biological activity of material recovered after aerosolization ([3]; condensed liquid from the aerosol): biologically active
- blood glucose levels after inhalation (diabetic mice (db/db)): significant drop
- bioavailability [4]: approximately 10%

Source: patent US8158579B2, “Fusion protein of an exendin to modified transferrin” (BioRexis Pharmaceutical Corporation, priority 2006, dated 2012)
